Assay [1] relates to G. duodenalis BRIS/91/HEPU/1279. Nature of the assay: Primary Giardia screen at 10 µM (live-cell imaging, automated counting). Type of assay: cell-based, Giardia duodenalis. Conditions: Giardia duodenalis. A digest of the protocol: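 Compound added to 10 μM final in medium with 0.2% DMSO, one well each; plates then held in sealed chambers at 3% O2, 5% CO2 in N2; growth imaged and counted automatically at 24 and 48 h; values normalised to vehicle wells minus media blank.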

For assay [2] the test system is unchanged. Description: Giardia dose response assay, assemblage B. The settings on record: Giardia duodenalis, ±SD, max 10 µM. Type of assay: cell-based, Giardia duodenalis. A digest of the protocol: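 Assemblage B trophozoites (BRIS/91/HEPU/1279, 1.5 × 10^4 parasites/well) faced 8–12-point doubling dilutions in duplicate, incubated 48 h at 37 °C under 3% O2, 5% CO2 in N2. Parasites were imaged and counted at 24 and 48 h. Growth inhibition was taken versus vehicle controls minus background, with IC50 by log-linear interpolation.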

The test system of assay [3] is Neonatal foreskin fibroblast (NFF) cells. Nature of the assay: Mammalian cell cytotoxicity assay (sulforhodamine B). Type of assay: cell-based, human. Conditions: for inhibition at 20 µM: Homo sapiens, NFF, ±SD; for SI (48h Gd): Table S2, NFF vs 48 h Giardia IC50. An outline of the steps:
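Dose–response from a top concentration of 100 µM was run on NFF cells, with sulforhodamine B as the viability read-out. Plates included media, no-compound, DMSO and chloroquine controls. Fibroblast IC50 was divided by the G. duodenalis BRIS/91/HEPU/1279 IC50 to give the selectivity index.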

Assay [4] has as its system Acinetobacter baumannii (ATCC 19606). Nature of the assay: Anti-bacterial activity assay. Type of assay: cell-based. Conditions: ATCC19606, 50 µM. A digest of the protocol:
(§1)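 Compounds tested once at 50 µM in duplicate against mid-log cultures at 5 × 10^5 CFU/mL, incubated 18 h at 37 °C without shaking. Growth read by absorbance at 600 nm; percentage inhibition calculated relative to bacteria-only wells. Vancomycin (Gram-positive) and colistin (Gram-negative) served as plate controls.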

Assay [5] deals with Escherichia coli (ATCC 25922). Description: Anti-bacterial activity assay. Type of assay: cell-based. Conditions: Escherichia coli, ATCC25922, 50 µM; read-out: Bacterial Inhibition E. coli. A digest of the protocol: as §1
Assay [6] relates to Klebsiella pneumoniae (ATCC 700603). Description: Anti-bacterial activity assay. The settings on record: ATCC700603, 50 µM, read-out: Bacterial Inhibition K. pneumoniae. It counts as cell-based. A digest of the protocol:
as §1

Assay [7] deals with methicillin resistant Staphylococcus aureus (ATCC 43300). Nature of the assay: Anti-bacterial activity assay. Type of assay: cell-based. The settings on record: Staphylococcus aureus, ATCC43300, 50 µM; read-out: Bacterial Inhibition S. aureus. A digest of the protocol:
as §1

The mark [8] stands for this setting: 24 h, first singlicate assay, read-out: % Inhibition n=1 24h.
[9] abbreviates: 24 h, re-assessment, read-out: % Inhibition n=2 24h.
[10] abbreviates: 24 h, read-out: Average % Inhibition 24h.
Setting [11] is: 48 h, first singlicate assay, read-out: % Inhibition n=1 48h.
Setting [12] is: 48 h, re-assessment, read-out: % Inhibition n=2 48h.
Setting [13] is: 48 h, read-out: Average % Inhibition 48h.
Where [14] appears, read: 24 h, read-out: G. duodenalis IC50 24h, Table S2, 24 h.
Setting [15] is: 48 h, Table S2, 48 h, read-out: G. duodenalis IC50 48h.

Like-named read-outs stand apart in the source and are kept apart here.

In the case of `COc1ccccc1N1CCN(C(=O)c2cc3c(C)nn(-c4ccc(C)cc4)c3s2)CC1` [SN00793100, COc1ccccc1N1CCN(CC1)C(=O)c1cc2c(C)nn(c3ccc(C)cc3)c2s1], the inhibition at 10 µM in assay [1] (setting [8]) turned out to be 51.9%; in assay [1] (setting [9]), 44%; in assay [1] (setting [10]), 48%; in assay [1] (setting [11]), 62.1%; in assay [1] (setting [12]), 69.2%; in assay [1] (setting [13]), 65.6%. Besides, the concentration for half-maximal inhibition (IC50) in assay [2] (setting [14]) and in assay [2] (setting [15]) was over 10 µM throughout. The inhibition at 20 µM in assay [3] was determined as 46.7 ± 6.8%. Also, the inhibition at 50 µM in assay [4] amounted to 9.06%; in assay [5], 1.35%; in assay [6], 7.52%; in assay [7], 10.1%.
`COc1ccc(Nc2cc(C)nc(N3CCN(C(=O)Nc4cccc(OC)c4)CC3)n2)cc1` [SN00793512, COc1ccc(cc1)Nc1cc(C)nc(n1)N1CCN(CC1)C(=O)Nc1cccc(OC)c1]: the inhibition at 10 µM worked out at 50.6% in assay [1] (setting [8]); 48.1% in assay [1] (setting [9]); 49.3% in assay [1] (setting [10]); 88.7% in assay [1] (setting [11]); 84.5% in assay [1] (setting [12]); 86.6% in assay [1] (setting [13]). The IC50 in assay [2] (setting [14]) is 8.74 µM; in assay [2] (setting [15]), 8.63 ± 1.91 µM. For the same compound, the inhibition at 20 µM in assay [3] was 35.2 ± 2.5%. In assay [3], the “SI (48h Gd)” value is on record as over 2. The inhibition at 50 µM in assay [4] worked out at 16.8%; in assay [5] it was 3.7%; in assay [6], 4.81%; in assay [7], 6.36%.
Consider `COc1ccc(NC(=O)c2ccc(-c3cc(NC4CCCCC4)ncn3)cc2)cc1` [SN00794765, COc1ccc(cc1)NC(=O)c1ccc(cc1)c1ncnc(NC2CCCCC2)c1], for which the inhibition at 10 µM in assay [1] (setting [8]) was 29.5%; in assay [1] (setting [9]) it was 4.7%; in assay [1] (setting [10]), 17.1%; in assay [1] (setting [11]) it was 63.5%; in assay [1] (setting [12]), 38.6%; in assay [1] (setting [13]), 51%. The half-inhibitory concentration (IC50) in assay [2] (setting [14]) and in assay [2] (setting [15]) was over 10 µM each time. Further, the inhibition at 20 µM in assay [3] turned out to be 23.1 ± 8.6%. For the same compound, the inhibition at 50 µM in assay [4] was -0.4%; in assay [5], 3.31%; in assay [6], 1.61%; in assay [7], 2.05%.
For the compound `O=C(Cc1csc2nc(-c3ccccc3)cn12)Nc1ccc(Cl)cc1` [SN00796218, Clc1ccc(cc1)NC(=O)Cc1csc2nc(cn12)c1ccccc1], the inhibition at 10 µM amounted to 47.2% in assay [1] (setting [8]); 48% in assay [1] (setting [9]); 47.6% in assay [1] (setting [10]); 59.9% in assay [1] (setting [11]); 75.5% in assay [1] (setting [12]); 67.7% in assay [1] (setting [13]). Moreover, the IC50 in assay [2] (setting [14]) and in assay [2] (setting [15]) was over 10 µM each time. In assay [3], the inhibition at 20 µM came out at 29.7 ± 10.3%. For the same compound, the inhibition at 50 µM in assay [4] was 4.35%; in assay [5], 3.03%; in assay [6], 3.63%; in assay [7], -2.23%.
Turning to `Cn1nccc1-c1cccc(-c2noc(-c3cccc(F)c3)n2)c1` [SN00798315, Fc1cccc(c1)c1onc(n1)c1cccc(c1)c1ccnn1C], the inhibition at 10 µM was determined as 24.1% in assay [1] (setting [8]); 11.1% in assay [1] (setting [9]); 17.6% in assay [1] (setting [10]); 66.9% in assay [1] (setting [11]); 61.2% in assay [1] (setting [12]); 64% in assay [1] (setting [13]). Also, the half-inhibitory concentration (IC50) was over 10 µM in assay [2] (setting [14]) and 4.74 ± 6.4 µM in assay [2] (setting [15]). Besides, the inhibition at 20 µM in assay [3] was -9 ± 1.9%. Further, the “SI (48h Gd)” value in assay [3] is reported as over 4. Besides, the inhibition at 50 µM in assay [4] amounted to 1.7%; in assay [5], 2.55%; in assay [6], 9.56%; in assay [7], 1.07%.

(Values after paper PMC9775191, “A Subset Screen of the Compounds Australia Scaffold Library Identifies 7-Acylaminodibenzoxazepinones as Potent and Selective Hits for Anti-Giardia Drug Discovery” (Biomedicines, 2022).)
